In this assay the target is GSK3β (Homo sapiens, UniProt P49841). Description: Inhibitory activity against GSK3β (33P-ATP phosphorylation of prephosphorylated GS1 peptide, two protocols). It is filed as biochemical. The settings on record: protocol 1 or 2 not specified. Here is the method:
Inhibitory Activity of the Medicament of the Present Invention Against GSK3β
Two different protocols can be used.
In a first protocol: 7.5 μM of prephosphorylated GS1 peptide and 10 μM ATP (containing 300,000 cpm of ^33P-ATP) were incubated in 25 mM Tris-HCl, pH 7.5, 0.6 mM DTT, 6 mM MgCl2, 0.6 mM EGTA, 0.05 mg/ml BSA buffer for 1 hour at room temperature in the presence of GSK3beta (total reaction volume: 100 microliters).
In a second protocol: 4.1 μM of prephosphorylated GS1 peptide and 42 μM ATP (containing 260,000 cpm ^33P-ATP) were incubated in 80 mM Mes-NaOH, pH 6.5, 1 mM Mg acetate, 0.5 mM EGTA, 5 mM 2-mercaptoethanol, 0.02% Tween 20, 10% glycerol buffer for 2 hours at room temperature in the presence of GSK3beta. Inhibitors were solubilized in DMSO (final solvent concentration in the reaction medium, 1%).
The reaction was stopped with 100 microliters of a solution made of 25 g polyphosphoric acid (85% P2O5), 126 ml 85% H3PO4, H2O to 500 ml and then diluted to 1:100 before use. An aliquot of the reaction mixture was then transferred to Whatman P81 cation exchange filters and rinsed with the solution described above. Incorporated ^33P radioactivity was determined by liquid scintillation spectrometry.
The phosphorylated GS-1 peptide had the following sequence: NH2-[…](P)EDEE-COOH. SEQ ID NO: 1 (Woodgett, J. R. (1989) Analytical Biochemistry 180, 237-241. […]

The structures appear in SMILES notation.

Chain of GSK3β (P49841 whole entry): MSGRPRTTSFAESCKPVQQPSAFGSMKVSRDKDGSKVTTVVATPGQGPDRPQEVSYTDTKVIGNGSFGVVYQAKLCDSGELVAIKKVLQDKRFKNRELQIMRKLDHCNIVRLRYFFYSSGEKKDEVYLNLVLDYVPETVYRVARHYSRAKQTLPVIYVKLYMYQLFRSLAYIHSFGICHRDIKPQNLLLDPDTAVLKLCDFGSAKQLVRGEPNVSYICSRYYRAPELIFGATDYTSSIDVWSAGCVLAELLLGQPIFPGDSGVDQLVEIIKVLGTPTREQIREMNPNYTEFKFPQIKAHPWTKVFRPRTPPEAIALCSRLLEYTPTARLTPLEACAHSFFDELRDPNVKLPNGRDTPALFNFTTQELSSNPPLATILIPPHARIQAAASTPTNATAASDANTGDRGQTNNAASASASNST

In turn, `COc1cc(Cl)ccc1C(=O)NCCc1nc(-c2ccncn2)cc(=O)n1C` [No. 1] registered an IC50 of 85 nM.

For the origin of these results see patent publication US8598187B2, “Arylamide pyrimidone compounds” (Sanofi, priority 2007, dated 2013).
